From US20250017888A1, “COMPOUNDS FOR TREATING DISEASES ASSOCIATED WITH HYALURONAN OVERPRODUCTION” (THE ROYAL VETERINARY COLLEGE, priority 2021, published 2025)

Key:
Format in all cases: cell-based
fibroblasts = assay: Alamar blue staining of fibroblasts; settings: Fibroblast
Protocol: (§1) The hyaluronan synthase activity (Prehm, P. and Schumacher, U., Biochem. Pharmacol. 2004, 68, 1401-1410), the cytotoxicity of the drugs (O'Brien, J. et al., Eur. J. Biochem. 2000, 267, 5421-5426), proteoglycan synthesis rate, hyaluronan (Prehm, P. J. Rheumatol., 2005, 32, 690-696) and proteoglycan (Bjornsson, S. Anal. Biochem. 1993, 210, 282-291) were determined as described. The effect of the prenylflavonoids on the MRP5 export rate was measured with fluorescein diacetate as described (Schulz, T., Schumacher, U., and Prehm, P., J Biol. Chem., 2007, 282, 20999-21004). The determination of the IC50 values on the phosphodiesterase 5 was performed according to the instructions of BPS Bioscience. The culture of bovine chondrocytes in alginate beads and of explants of bovine cartilage was described previously (Deiters, B. and Prehm, P. Arthritis Res. Ther., 2008, 10, R8; Prehm, P. J. Rheumatol. 2005, 32, 690-696). Osteoarthritic reactions were induced in chondrocytes growing in alginate beads by incubation with medium containing 10 ng/ml of II-17 for 6 days, and in cartilage explants with 10 ng/ml of II-17 and 5 ng/ml of II-1α. The supernatants were withdrawn and stored at −20° C. for later analysis. The explants were weighed and extracted with 1 ml of 4 M guanidinium-HCl for 72 hours at 4° C. The proteoglycan concentrations were determined in the extracts.

chondrosarcoma cells = assay: Uptake of flavonoids into chondrosarcoma cells by intracellular fluorescence
Protocol: Confluent monolayers of chondrosarcoma cells on 96 well microtiter plates were incubated with 100 μM solutions of flavonoids in serum-free Quantum medium. Changes in fluorescence were monitored from the bottom of the wells at excitation and emission wavelengths of 340 nm and 450 nm for xanthohumol and at 440 nm and 530 nm for quercetin, respectively.
Flavonoids are weakly fluorescent in aqueous buffer, but greatly enhance the fluorescence in the presence of proteins (Sengupta, B. and Sengupta, P. K., Biochem. Biophys. Res. Commun., 2002, 299, 400-403). This property was used to follow the uptake of quercetin and xanthohumol into chondrosarcoma cells.

[1] = tested on: chondrosarcoma cells (SW1353); assay: Alamar blue staining of chondrosarcoma; settings: Homo sapiens
Protocol: as §1
Chondrosarcoma cells (SW1353 from the American Type Culture Collection) were grown in Dulbecco's medium supplemented with streptomycin/penicillin (100 units of each/ml), 10% foetal calf serum or in serum free Quantum medium supplemented with streptomycin/penicillin (100 units of each/ml), kanamycin (100 units/ml).

bovine cartilage slices = assay: Collagen loss from cartilage explants (van Gieson staining); settings: Il-1α, Il-1β and Il-17; 12.5 μM and 50 μM; 14 days
Protocol: Cartilage explants were incubated with and without a mixture of 10 ng/ml of II-1α, 10 ng/ml of II-1β and 25 ng/ml of II-17 for 14 days. The addition of the cytokines was repeated daily. The tissues were fixed with 3.7% paraformaldehyde for 24 hours, imbedded in paraffin and stained by the van Giesson method.
Cartilage explants were incubated with and without a mixture of 10 ng/ml of 11-17 and 5 ng/ml of II-1α for 14 days. The addition of the cytokines was repeated daily. The tissues were fixed with 3.7% paraformaldehyde for 24 hours, imbedded in paraffin and stained by the van Gieson method (van Gieson, 1. (1889) Laboratory notes of technical methods for the nervous system. New York Medical Journal 50, 57-60).
It is known that hyaluronan overproduction leads to collagen degradation from cartilage (Deiters, B. and Prehm, P., Arthritis Res. Ther., 2008, 10, R8; Prehm, P., J. Rheumatol., 2005, 32, 690-696). […] Therefore cartilage explants were incubated with a mixture of the osteoarthritis inducing […] II-1α, II-1β and II-17 with 12.5 μM and 50 μM of the prenylflavonoids for 14 days and collagen was stained by the van Giesson method.

[2] = tested on: hyaluronan export from chondrosarcoma cells; assay: Inhibition of hyaluronan export / production in chondrosarcoma cells
Protocol: as §1
Chondrosarcoma cells were plated on a 96 well microtiter plate and in the presence of increasing flavonoid concentrations. After 2 days the concentration of hyaluronan was determined in the culture supernatant.

[3] = tested on: bovine cartilage explants; assay: Proteoglycan loss from interleukin activated bovine cartilage explants; settings: Bos taurus; read-out: IC50 Inhibition of proteoglycan loss
Protocol: Cartilage explants were weighed (average wet weight: 20 mg) incubated in the absence and presence of IL-1 (2 ng/ml) and the inhibitors at various concentrations for 5 days. The tissues were extracted with 1.5 ml of a solution of 4 M guanidinium hydrochloride, 0.1 M ε-aminohexanoid acid, 5 mM benzamidine, 10 mM N-ethylmaleinimide, 0.5 mM phenylmethylsulfonyl fluoride for 3 days at 4° C. The solution was centrifuged for 5 min at 10.000 g and the proteoglycans were determined in the supernatant by the alcian blue method as described (Bjornsson, S., Anal. Biochem., 1993, 210, 282-291).
Bovine cartilage explants were incubated in the absence and presence of interleukin for stimulation of osteoarthritic reactions and the indicated concentrations of the xanthohumol-betaine (FIG. 6A), xanthohumol-prothiazole (FIG. 6B), quercetin-prothiazole (FIG. 6C), quercetin (FIG. 6D) and xanthohumol (FIG. 6E) for 5 days. The cartilage explants were weighed and the proteoglycan concentrations were determined in the cartilage explants (solid bars) and culture supernatants (open bars).

[4] = Alamar blue toxicity assay (FIG. 1); settings: below concentrations of 100 μM
Protocol: as §1
The toxicity was determined by the Alamar blue assay.

SMILES: COc1cc(O)c(CC=C(C)C)c(O)c1C(=O)/C=C/c1ccc(O)cc1 [Xanthohumol, reference compound]
- IC50 (fibroblasts): 55 µM
- uptake into chondrosarcoma cells (intracellular fluorescence) (chondrosarcoma cells): did not accumulate inside the cells
- IC50 [1]: 76 µM
- protection of cartilage from collagen loss (bovine cartilage slices): effective at protecting the cartilage from collagen loss
- IC50 [2]: 19 µM
- IC50 [3]: 2.6 µM
- toxicity in Alamar blue assay [4]: not toxic
